These results are taken from US7507760B2, “N-type calcium channel blockers” (Neuromed Pharmaceuticals Ltd., priority 2004, dated 2009).

Each structure is given as a SMILES string. Where two headings read alike, the source gives them in different places.

Assay [1] addresses T1, rat brain N-type calcium channel subunits (α1B+α2δ+β1b cDNA subunits) (Rattus norvegicus, UniProt Q02294).
T1 construct: expressed in transfected cells; host or cells: HEK 293
Briefly: N-type calcium channel block, whole cell patch clamp in HEK 293 cells. Format: cell-based. Conditions: holding potential −80 mV to +10 mV, 5 mM BaCl2. The source says: Normalized dose-response curves were fit (Sigmaplot 4.0, SPSS Inc., Chicago, Ill.) by the Hill equation to determine IC50 values. Steady-state inactivation curves were plotted as the normalized test pulse amplitude following 5 s inactivating prepulses at +10 mV increments. Inactivation curves were fit (Sigmaplot 4.0) with the Boltzman equation, Ipeak (normalized)=1/(1+exp((V-Vh)z/25.6)), where V and Vh are the conditioning and half inactivation potentials, respectively, and z is the slope factor.
The methods of Example 11 were followed with slight modifications as will be apparent from the description below.
N-type calcium channel blocking activity was assayed in human embryonic kidney cells, HEK 293, stably transfected with the rat brain N-type calcium channel subunits (α1B+α2δ+β1b cDNA subunits). Briefly, cells were cultured in Dulbecco's modified eagle medium (DMEM) supplemented with 10% fetal bovine serum, 200 U/ml penicillin and 0.2 mg/ml streptomycin at 37° C. with 5% CO2. At 85% confluency, cells were split with 0.25% trypsin/1 mM EDTA and plated at 10% confluency on glass coverslips. At 12 hours the medium was. replaced and the cells transfected using a standard calcium phosphate protocol and the appropriate calcium channel cDNAs. Fresh DMEM was supplied and the cells transferred to 28° C./5% CO2. Cells were incubated for 1 to 2 days to whole cell recording.
Whole cell patch clamp experiments were performed using an Axopatch 200B amplifier (Axon Instruments, Burlingame, Calif.) linked to a personal computer equipped with pCLAMP software. The external and internal recording solutions contained, respectively, 5 mM BaCl2, 10 mM MgCl2, 10 mM HEPES, 40 mM TEACl, 10 mM glucose, 87.5 mM CsCl (pH 7.2) and 108 mM CsMS, 4 mM MgCl2, 9 mM EGTA, 9 mM HEPES (pH 7.2). Currents were typically elicited from a holding potential of −80 mV to +10 mV using Clampex software (Axon Instruments). Typically, currents were first elicited with low frequency stimulation (0.067 Hz) and allowed to stabilize prior to application of the compounds. The compounds were then applied during the low frequency pulse trains for two to three minutes to assess tonic block, and subsequently the pulse frequency was increased to 0.2 Hz to assess frequency dependent block. Data were analyzed using Clampfit (Axon Instruments) and SigmaPlot 4.0 (Jandel Scientific).

Assay [2] addresses T2, human α1G T-type channels (Homo sapiens, UniProt O43497).
T2 construct: expressed in transfected cells
As to the kind of experiment: Block of α1G T-type channels, whole-cell patch clamp in HEK cells. Format: cell-based. Conditions: test pulse −40 mV. On the procedure:
Standard patch-clamp techniques were employed to identify blockers of T-type currents. Briefly, previously described HEK cell lines stably expressing human α1G T-type channels were used for all the recordings (passage #: 4-20, 37° C., 5% CO2). To obtain T-type currents, plastic dishes containing semi-confluent cells were positioned on the stage of a ZEISS AXIOVERT S100 microscope after replacing the culture medium with external solution (Table 3). Whole-cell patches were obtained using pipettes (borosilicate glass with filament, O.D.: 1.5 mm, I.D.: 0.86 mm, 10 cm length), fabricated on a SUTTER P-97 puller with resistance values of ˜5 MΩ (Table 4 ).
T-type currents were reliably obtained by using two voltage protocols: “non-inactivating”, and “inactivation”. In the non-inactivating protocol, the holding potential is set at −110 mV and with a pre-pulse at −100 mV for 1 second prior to the test pulse at −40 mV for 50 ms. In the inactivation protocol, the pre-pulse is at approximately −85 mV for 1 second, which inactivates about ^15% of the T-type channels.
Test compounds were dissolved in external solution, 0.1-0.01% DMSO. After ˜10 min rest, they were applied by gravity close to the cell using a WPI microfil tubing. The “non-inactivated” pre-pulse was used to examine the resting block of a compound. The “inactivated” protocol was employed to study voltage-dependent block. However, the initial data shown below were mainly obtained using the non-inactivated protocol only. IC50 values are shown for various compounds of the invention in Table 5.

Where [3] appears, read: frequency dependent block, pulse frequency 0.2 Hz, read-out: IC50 at 0.2 Hz.
[4] abbreviates: tonic block, low frequency stimulation 0.067 Hz, read-out: IC50 at 0.067 Hz.
The mark [5] stands for this setting: −80 mV (inactivation protocol), read-out: IC50 at −80 mV.
The mark [6] stands for this setting: −100 mV (non-inactivating protocol), read-out: IC50 at −100 mV.

T2 sequence (O43497 whole entry): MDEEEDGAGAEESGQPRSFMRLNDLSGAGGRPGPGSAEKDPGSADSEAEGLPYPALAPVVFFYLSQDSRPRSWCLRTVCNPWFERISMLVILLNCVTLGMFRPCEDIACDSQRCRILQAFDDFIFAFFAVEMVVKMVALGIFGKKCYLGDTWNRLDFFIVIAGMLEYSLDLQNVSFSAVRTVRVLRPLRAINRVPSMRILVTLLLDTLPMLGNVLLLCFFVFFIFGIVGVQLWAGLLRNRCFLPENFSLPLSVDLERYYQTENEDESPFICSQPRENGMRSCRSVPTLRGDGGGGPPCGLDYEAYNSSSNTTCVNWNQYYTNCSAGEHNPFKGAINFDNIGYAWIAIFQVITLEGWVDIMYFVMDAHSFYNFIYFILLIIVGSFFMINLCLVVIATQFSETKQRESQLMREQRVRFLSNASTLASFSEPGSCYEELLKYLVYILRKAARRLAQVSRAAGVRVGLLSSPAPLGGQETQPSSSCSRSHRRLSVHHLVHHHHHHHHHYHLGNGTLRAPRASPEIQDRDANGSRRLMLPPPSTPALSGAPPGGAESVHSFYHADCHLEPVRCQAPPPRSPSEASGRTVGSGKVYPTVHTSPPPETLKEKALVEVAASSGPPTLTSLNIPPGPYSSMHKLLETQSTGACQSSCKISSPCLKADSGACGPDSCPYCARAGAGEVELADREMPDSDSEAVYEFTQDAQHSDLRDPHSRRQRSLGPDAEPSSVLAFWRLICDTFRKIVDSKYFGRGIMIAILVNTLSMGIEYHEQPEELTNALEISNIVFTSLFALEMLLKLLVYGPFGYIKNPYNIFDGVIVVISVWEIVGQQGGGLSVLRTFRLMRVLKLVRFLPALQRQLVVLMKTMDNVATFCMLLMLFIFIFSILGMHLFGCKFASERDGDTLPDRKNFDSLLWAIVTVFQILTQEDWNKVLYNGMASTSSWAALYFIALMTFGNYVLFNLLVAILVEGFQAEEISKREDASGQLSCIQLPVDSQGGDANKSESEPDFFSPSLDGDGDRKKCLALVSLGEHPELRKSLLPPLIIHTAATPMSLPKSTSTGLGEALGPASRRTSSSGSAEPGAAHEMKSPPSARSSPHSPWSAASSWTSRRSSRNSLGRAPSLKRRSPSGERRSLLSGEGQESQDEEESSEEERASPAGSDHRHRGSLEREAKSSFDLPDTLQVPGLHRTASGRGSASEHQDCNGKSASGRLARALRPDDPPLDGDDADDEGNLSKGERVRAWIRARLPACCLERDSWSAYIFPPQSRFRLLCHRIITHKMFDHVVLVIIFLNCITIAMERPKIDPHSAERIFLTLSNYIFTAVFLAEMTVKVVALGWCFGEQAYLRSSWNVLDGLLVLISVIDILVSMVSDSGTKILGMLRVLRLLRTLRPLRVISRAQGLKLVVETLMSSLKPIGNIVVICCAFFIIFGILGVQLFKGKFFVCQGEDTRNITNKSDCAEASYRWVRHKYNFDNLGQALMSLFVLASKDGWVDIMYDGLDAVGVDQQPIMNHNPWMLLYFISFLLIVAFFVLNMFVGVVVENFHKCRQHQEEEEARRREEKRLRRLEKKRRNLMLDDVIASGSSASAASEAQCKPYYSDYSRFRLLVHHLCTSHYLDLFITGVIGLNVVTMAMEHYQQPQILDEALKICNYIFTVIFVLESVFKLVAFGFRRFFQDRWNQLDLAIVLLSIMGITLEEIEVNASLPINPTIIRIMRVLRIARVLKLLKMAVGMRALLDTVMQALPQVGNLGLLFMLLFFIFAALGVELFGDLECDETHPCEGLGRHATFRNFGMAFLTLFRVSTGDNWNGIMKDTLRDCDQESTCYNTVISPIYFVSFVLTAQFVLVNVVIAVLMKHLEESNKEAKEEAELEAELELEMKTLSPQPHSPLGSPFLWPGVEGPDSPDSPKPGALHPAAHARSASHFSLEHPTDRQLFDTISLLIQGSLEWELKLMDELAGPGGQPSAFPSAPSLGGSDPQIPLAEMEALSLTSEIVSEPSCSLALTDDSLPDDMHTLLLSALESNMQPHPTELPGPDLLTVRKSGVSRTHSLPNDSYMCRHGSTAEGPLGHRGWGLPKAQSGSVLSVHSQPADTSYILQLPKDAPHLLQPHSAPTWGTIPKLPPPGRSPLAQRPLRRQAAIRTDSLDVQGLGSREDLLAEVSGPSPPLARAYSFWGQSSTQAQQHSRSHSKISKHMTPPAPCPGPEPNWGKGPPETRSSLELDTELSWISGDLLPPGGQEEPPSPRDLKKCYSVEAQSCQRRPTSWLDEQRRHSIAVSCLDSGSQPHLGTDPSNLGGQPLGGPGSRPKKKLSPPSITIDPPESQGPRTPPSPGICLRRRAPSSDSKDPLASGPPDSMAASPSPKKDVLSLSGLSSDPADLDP

With `CN(C(=O)CC(c1ccccc1)c1ccccc1)[C@@H]1CCN(C(c2ccccc2)c2ccccc2)C1` [Compound P3, (R)-N-(1-Benzhydryl-pyrrolidin-3-yl)-N-methyl-3,3-diphenyl-propionamide], the IC50 in assay [1] (setting [3]) was found to be 44 nM; in assay [1] (setting [4]) it was 112 nM; in assay [2] (setting [5]) it was 364 nM; in assay [2] (setting [6]) it was 910 nM.
For `CN(C(=O)CC(c1ccccc1)c1ccccc1)[C@H]1CCN(C(c2ccccc2)c2ccccc2)C1` [Compound P6, (S)-N-(1-Benzhydryl-pyrrolidin-3-yl)-N-methyl-3,3-diphenyl-propionamide] the same measures were 365 nM, 638 nM, 455 nM and 1160 nM.
On to `CN(C(=O)CC(c1ccccc1)c1ccccc1)[C@@H]1CCN(Cc2cccnc2)C1` [Compound P8, (R)-N-Methyl-3,3-diphenyl-N-(1-pyridin-3-ylmethyl-pyrrolidin-3-yl)-propionamide], for which the IC50 in assay [1] (setting [3]) was 987 nM; in assay [1] (setting [4]), 3000 nM. Besides, the “IC50 at −80 mV” value in assay [2] (−80 mV (inactivation protocol)) is reported as “No block”. Also, in assay [2] (−100 mV (non-inactivating protocol)), the “IC50 at −100 mV” value is recorded as “No block”.
Regarding `CN(C(=O)CC(c1ccccc1)c1ccccc1)[C@@H]1CCN(Cc2ccccn2)C1` [Compound P9, (R)-N-Methyl-3,3-diphenyl-N-(1-pyridin-2-ylmethyl-pyrrolidin-3-yl)-propionamide], the IC50 in assay [1] (setting [3]) was 617 nM; in assay [1] (setting [4]), 1300 nM; in assay [2] (setting [5]), 160 to 2400 nM; in assay [2] (setting [6]) it was 150 to 4500 nM.
For `CN(C(=O)CC(c1ccccc1)c1ccccc1)[C@@H]1CCN(C(c2ccccc2)c2ccncc2)C1` (stereo partly drawn) [Compound P10, (R)-N-Methyl-3,3-diphenyl-N-[1-(phenyl-pyridin-4-yl-methyl)-pyrrolidin-3-yl]-propionamide] the same measures were 520 nM, 714 nM, 882 nM and 3460 nM.
For `CN(C(=O)CC(c1ccccc1)c1ccccc1)[C@@H]1CCN(C(c2ccccc2)c2cccnc2)C1` (stereo partly drawn) [Compound P11, (R)-N-Methyl-3,3-diphenyl-N-[1-(phenyl-pyridin-3-yl-methyl)-pyrrolidin-3-yl]-propionamide] the same measures were 302 nM, 386 nM, 374 nM and 1800 nM.
For `CN(C(=O)CC(c1ccccc1)c1ccccc1)[C@@H]1CCN(C(c2ccccc2)c2ccccn2)C1` (stereo partly drawn) [Compound P12, (R)-N-Methyl-3,3-diphenyl-N-[1-(phenyl-pyridin-2-yl-methyl)-pyrrolidin-3-yl]-propionamide] the same measures were 285 nM, 362 nM, 335 nM and 647 nM.
As for `CN(C(=O)CC(c1ccccc1)c1ccccc1)[C@H]1CCN(Cc2ccncc2)C1` [Compound P13, (S)-N-Methyl-3,3-diphenyl-N-(1-pyridin-4-ylmethyl-pyrrolidin-3-yl)-propionamide], the IC50 was found to be 471 nM in assay [1] (setting [3]), 913 nM in assay [1] (setting [4]), 488 nM in assay [2] (setting [5]) and 5000 nM in assay [2] (setting [6]).
For `CN(C(=O)CN(c1ccccc1)c1ccccc1)[C@H]1CCN(C(c2ccccc2)c2ccccc2)C1` [Compound P14, (S)-N-(1-Benzhydryl-pyrrolidin-3-yl)-2-diphenylamino-N-methyl-acetamide] the same measures were 252 nM, 366 nM, 99 nM and 609 nM.
On the same counts, the results for `CN(CC(=O)N(c1ccccc1)c1ccccc1)[C@H]1CCN(C(c2ccccc2)c2ccccc2)C1` [Compound P15, (S)-2-[(1-Benzhydryl-pyrrolidin-3-yl)-methyl-amino]-N,N-diphenyl-acetamide] are 216 nM, 287 nM, 115 nM and 692 nM.
On the same counts, the results for `CN(C(=O)NC(c1ccccc1)c1ccccc1)[C@H]1CCN(C(c2ccccc2)c2ccccc2)C1` [Compound P16, (S)-3-Benzhydryl-1-(1-benzhydryl-pyrrolidin-3-yl)-1-methyl-urea] are 601 nM, 1030 nM, 926 nM and 2200 nM.
